Experimental data from paper PMC3486926 (Journal of the American Chemical Society, 2012).

Molecular target: LmbR (C-His6-LmbR) (Streptomyces lincolnensis, UniProt Q54372)
Assay: HPLC with charged aerosol detection, ESI-MS of product
Format: biochemical
Conditions: C5 acceptor, 10 mM; co-substrate F6P 10 mM

Structure (SMILES) | HPLC with charged aerosol detection, ESI-MS of product
O=P(O)(O)OC[C@H]1OC(O)[C@H](O)[C@H]1O (stereo partly drawn) [8b, D-xylose 5-phosphate] | LmbR can accept both R5P (8a) and X5P (8b) as the C5 substrate
O=P(O)(O)OC[C@H]1OC(O)[C@H](O)[C@@H]1O (stereo partly drawn) [8a, D-ribose 5-phosphate] | LmbR can accept both R5P (8a) and X5P (8b) as the C5 substrate
